Results taken from publication PMC12196235, “Enhancing the Pharmacological Properties of Triterpenes Through Acetylation: An Anticancer and Antioxidant Perspective” (Molecules, 2025).
“And” between values parts separate entries of the source, which are not always exact repeats. Identical values can stand only once. Like-named read-outs stand apart in the source and are kept apart here.

Columns and labels:
[1] = system: KB (human oral squamous carcinoma); assay: MTT assay, KB; format: cell-based
SKOV-3 = assay: Apoptosis assay (Cell Death Detection ELISA Plus), SKOV-3; format: cell-based, human
Procedure: (§1) The induction of apoptosis by tested compounds was determined with Cell Death Detection ELISA Plus from Roche Diagnostics GmbH (Mannheim, Germany).
(§2) Cell Death Detection ELISA Plus is an enzyme immunoassay for determining cytoplasmic histone-associated DNA fragments (mono- and […]) after induced cell death. Cells (10^4) were pipetted into wells of 96-well plates, and test compounds were added at final concentrations of 0.1, 1.0 and 10.0 µg × mL^−1. Cells incubated in the absence of test compounds served as negative controls. After 4 h of incubation, cells were harvested by centrifugation of the plates for 10 min at 200× g. Supernatants were removed carefully, and cell pellets were resuspended in 200 µL of cell lysis buffer and incubated for 30 min at room temperature. After centrifugation of the plates (10 min at 200× g), 20 µL of cell lysates was transferred in duplicate into wells of provided streptavidin-coated microplates. Then, 80 µL of the immunoreagent containing a mixture of anti-histone-biotin monoclonal antibody and anti-DNA-peroxidase monoclonal antibody was added to each well. The microplates were covered with a provided adhesive foil and incubated for 2 h at room temperature. Thereafter, the solution in the wells was removed by tapping the microplate. The wells were rinsed three times with incubation buffer, and 100 µL of substrate (2,2′-azino-bis [3-ethylbenzothiazoline-6-sulphonic acid], ABTS) was added to each well. After 10–20 min, 100 µL of ABTS stop solution was pipetted to each well, and the absorbance was read at 405 nm (test wavelength) and 490 nm (reference wavelength). The apoptotic index was calculated based on the enrichment of mono- and oligonucleosomes according to the following equation:apoptotic index = [{A405(sample) − A490(sample)}/{A405(negative control) − A490(negative control)}]

[2] = system: T-47D (human breast carcinoma); details: cited from earlier work; for IC50: read-out: anticancer IC50 (T-47D)
[3] = system: HeLa, KB, MCF-7, A-549, PC-3 and SKOV-3; assay: MTT assay, summary over the cancer cell lines; format: cell-based, human; details: classification by IC50 (good ≤ 10 μM, moderate 10–30 μM, ref 83)
Procedure: All the cell lines and mediums were obtained from the American Type Culture Collection (ATCC) supplied by LGC-Standards (Lomianki, Poland). Human cancer cell lines were cultured as follows: HeLa (human cervix carcinoma) and KB (human oral squamous carcinoma) lines were cultured in DMEM (Dulbecco’s Modified Eagle’s Medium); MCF-7 (human breast carcinoma) and A-549 (human lung carcinoma) were cultured in RPMI 1640 medium; PC-3 (human prostate carcinoma) was cultured in F-12K medium; SKOV-3 (human ovarian cystadenocarcinoma) was cultured in McCoy’s modified medium; HDF (human normal dermal fibroblasts) was cultured in Fibroblast Basal Medium. Each medium was supplemented with 10% fetal bovine serum, 1% L- glutamine and 1% penicillin/streptomycin solution. The cell lines were kept in an incubator at 37 °C.
All the tested cell lines (HeLa, KB, MCF-7, A-549, PC-3, SKOV-3 and HDF) were subjected to MTT assay. In short, this assay is based on the reaction between mitochondria enzymes (dehydrogenases) of tested cell lines and 3-(4,5-dimethylthiazol-2-yl)-2,5-diphenyltetrazolium bromide (MTT). The final product of this reaction gives violet formazan crystals. The number of live cells is proportional to the amount of formazan and is represented by the violet dye reagent. The details of the experiments are given in [19].

[4] = system: HPGBM (human glioblastoma multiforme); details: ref 47; read-out: anticancer IC50 (HPGBM); cited from earlier work
[5] = system: SW-707 (human colon carcinoma); details: ref 49, cited from earlier work
[6] = system: FTC-238 (human thyroid carcinoma); details: ref 47; read-out: anticancer IC50 (FTC-238); cited from earlier work
PC-3 = assay: Apoptosis assay (Cell Death Detection ELISA Plus), PC-3; format: cell-based, human; details: PC-3, 4 h incubation, enrichment of mono- and oligonucleosomes vs negative control
Procedure: as §1, §2

[7] = system: Jurkat 1E.6 (human T cell leukemia); details: ref 47; read-out: anticancer IC50 (Jurkat 1E.6); cited from earlier work
[8] = system: HPOC (human ovarian carcinoma); details: ref 47; read-out: anticancer IC50 (HPOC); cited from earlier work
[9] = system: HDF (human dermal fibroblasts); assay: MTT assay, normal HDF; format: cell-based; details: Homo sapiens, Fibroblast, read-out: IC50 (±SD), HDF
Summary of the method: (§3)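 Using the MTT method, survival of cancer lines and normal dermal fibroblasts was quantified by formazan formation. Culture: DMEM for HeLa, RPMI 1640 for MCF-7 and A-549, Fibroblast Basal Medium for HDF, with 10% FBS, 37 °C.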

DPPH antioxidant assay = details: calculated from Trolox standard curve
Procedure: The results are presented as % inhibition of the copper(II) ions and Trolox equivalent calculated from the standard curve (Figure 9) and as % inhibition of the DPPH radical and Trolox equivalent, calculated from the standard curve (Figure 10).
The CUPRAC reagent (7.5 mM ethanolic 96% neocuproine solution, 10 mM CuCl2 × H2O solution and an ammonium acetate buffer of pH 7.0) and DPPH reagent (2,2-diphenyl-1-picrylhydrazyl 0.2 mM solution) were applied.
The CUPRAC method measures the reducing power of a sample by quantifying its ability to convert the Cu-neocuproine reagent complex to the Cu(I) form. In contrast, the DPPH assay relies on the ability of an antioxidant to donate a hydrogen atom or an electron to the stable DPPH radical, resulting in its reduction and subsequent color change. The results are presented as % inhibition of the copper(II) ions and Trolox equivalent calculated from the standard curve (Figure 9) and as % inhibition of the DPPH radical and Trolox equivalent, calculated from the standard curve (Figure 10). The spectroscopic detection in CUPRAC and DPPH assays was conducted with Synergy H1 Multi-Mode Microplate Reader (BioTek Instruments, Inc., Winooski, VT, USA). The details of the experiments are given in [102].

[10] = system: A-549 (human lung carcinoma); assay: MTT assay, A-549; format: cell-based
Summary of the method: as §3

[11] = system: SK-N-AS (human neuroblastoma); details: ref 47; read-out: anticancer IC50 (SK-N-AS); cited from earlier work

Structure (SMILES): C=C(C)[C@@H]1CC[C@]2(CO)CC[C@]3(C)[C@H](CC[C@@H]4[C@@]5(C)CC[C@H](O)C(C)(C)[C@@H]5CC[C@]43C)[C@@H]12 [5a, betulin]
- IC50 ([1]; Homo sapiens, MTT assay, KB): 19.7 µM
- Selectivity index (SI), KB ([1]; IC50 HDF / IC50 KB): 0.80
- mean apoptotic index (SKOV-3; 0.1 µg/mL, mean over SKOV-3 and PC-3): 5.54
- Apoptotic index (AI), SKOV-3 (SKOV-3; SKOV-3, 4 h incubation, enrichment of mono- and oligonucleosomes vs negative control): 5.26 (0.03)
- IC50 ([2]; ref 47): 5.2 µM
- anticancer IC50 (T-47D) ([2]; ref 49): 32.4 µg/mL
- IC50 ([2]; ref 49): 73.2 µM
- cytotoxic activity class [3]: high or moderately high activity
- IC50 [4]: 3.4 µM
- anticancer IC50 (SW-707) [5]: 22.9 µg/mL
- IC50 ([5]; read-out: anticancer IC50 (SW-707)): 51.7 µM
- IC50 [6]: 6.8 µM
- Apoptotic index (AI), PC-3 (PC-3): 5.82 (0.03)
- IC50 [7]: 6.7 µM
- IC50 [8]: 2.8 µM
- IC50 [9]: 15.8 µM
- Trolox Equivalent, DPPH Assay (DPPH antioxidant assay): 0.01077 mg/mL and 0.01077 ± 0.000446 mg/mL
- IC50 ([10]; Homo sapiens, A549, MTT assay, A-549, read-out: IC50 (±SD), A-549): 19.6 µM
- Selectivity index (SI), A-549 ([10]; IC50 HDF / IC50 A-549): 0.81
- IC50 [11]: 2.5 µM
